Reference: ChEMBL document CHEMBL1153838, “Optimization of the dosage of flucytosine in combination with amphotericin B for disseminated candidiasis: a pharmacodynamic rationale for reduced dosing” (2007)
≈ marks a conversion by molar mass, not a printed value.

Key:
Assay type in all cases: functional
Candida [1] = assay: Antifungal activity against Candida species infected patients assessed as residual fungal burden at 0.1 mg/kg/day administered as single dose
[2] = T>MIC in Candida species infected patients at 25 mg/kg/day administered as four divided doses
Candida [3] = assay: Antifungal activity against Candida isolates
Candida [4] = assay: Antifungal activity against Candida species infected patients assessed as residual fungal burden at 0.3 mg/kg/day administered as single dose
Candida [5] = assay: Antifungal activity against Candida species infected patients assessed as residual fungal burden at 0.6 mg/kg/day administered as single dose
Candida [6] = assay: Antifungal activity against Candida isolates by CLSI methods
Candida albicans = assay: Antifungal activity against Candida albicans isolates by broth microdilution method

For `C[C@@H]1[C@H](O)[C@@H](C)/C=C/C=C/C=C/C=C/C=C/C=C/C=C/[C@H](O[C@@H]2O[C@H](C)[C@@H](O)[C@H](N)[C@@H]2O)C[C@@H]2O[C@](O)(C[C@@H](O)C[C@@H](O)[C@H](O)CC[C@@H](O)C[C@@H](O)CC(=O)O[C@H]1C)C[C@H](O)[C@H]2C(=O)O` [AMPHOTERICIN B], the log10CFU/g (Candida [1]) was 2.2, the “T>MIC” value [2] was 100% and the MIC (Candida [3]) was ≤ 1 µg/mL. The log10CFU/g (Candida [4]) was 1 and the log10CFU/g (Candida [5]) was 0.6.
For `Nc1nc(=O)[nH]cc1F` [FLUCYTOSINE], the MIC90 (Candida [6]) was 1 µg/mL (≈ 7.75 µM) and the MIC (Candida albicans) was 0.125 µg/mL (≈ 0.968 µM).
